Values of other authors, collected in US10596120B2, “Pharmaceutical compositions” (Boehringer Ingelheim International GmbH, priority 2011, dated 2020).

Conditions: metformin on its own, in the diabetic

CN(C)C(=N)N=C(N)N [metformin]
average improvement in the HbA1c value: 1.0-1.5%
